Entries after “also recorded” stand apart in the source; their conditions may differ. Where two headings read alike, the source gives them in different places.
Experiments:
[1] = PK comparison across studies M04-710 and M05-756 (race, cancer type); assay type: in vivo, human; conditions: for Dose Normalized AUC24 / Dose Normalized Cmax: steady state; for half-life: human, plasma, oral
Procedure: The objective of this analysis was to compare pharmacokinetic (PK) parameters and to monitor safety and early efficacy of ABT-869 when treating solid tumors versus hematologic malignances, Asian versus Caucasian populations and using solution versus tablet formulations.
(§1) In study M04-710, blood samples for pharmacokinetic analysis were collected on Days 1 and 15 at the following times: 0 (pre-dose), 0.5, 1, 2, 3, 4, 6, 8, and 24 h (Day 1 only).
(§2) In study M05-756, blood samples for pharmacokinetic analysis were collected on Days 1 and 8 at the following times: 0 (pre-dose), 0.5, 1, 2, 3, 4, 6, 8, and 24 h (Day 1 only). Urine was collected for the 24 hour period following dosing on Day 13 through bedtime on Day 14 (non-hematologic malignancy study) and following dosing after Day 6 and through bedtime on Day 7 (AML/MDS study). Plasma and urine concentrations of ABT-869 were determined under the supervision of the Drug Analysis Department at Abbott using LCMS/MS. PK parameters were determined by noncompartmental analysis using WinNonlin Professional Version 5.0.1.

[2] = system: non-hematologic malignancy; test: Efficacy in study M04-710; assay type: in vivo, human
Procedure: Study M04-710 and M05-756 are ongoing, open-label, multiple-dose escalation trials with ABT-869 administered daily for 21 consecutive days, with dose escalation scheduled in cohorts of 3 subjects. […] In both studies dosing was initiated at 10 mg QD, with subjects self-administering ABT-869 orally (admixed with approximately 60 mL of Ensure Plus or an approved alternative) at bedtime. Food was not allowed 2 h before or after dosing.
ECOG score of 0-2 in study of non-hematologic malignancies or 0-3 in AML/MDS study.

[3] = Safety in study M05-756 (AML/MDS; adverse events, DLTs)
Procedure: (§3) Food was not allowed 2 h before or after dosing.
(§4) The following safety evaluations were performed during the studies: adverse event monitoring, vital signs, ECGs, physical examination and laboratory tests assessments.

[4] = human, in vivo
Procedure: as §3, §4

[5] = Study M04-710 pharmacokinetics, multiple-dose escalation, non-hematologic malignancies; assay type: in vivo, human; conditions: for AUC∞/D / Cmax/D / AUC0-24/D / Cmax / Tmax / AUC(0-t) / AUC(0-inf) / clearance / half-life: mean ± SD; for Cmax / Tmax / AUC(0-t) / AUC(0-inf) / clearance / half-life: human, plasma; for AUC(0-t): read-out: AUC0-24
Procedure: as §1, §2

[6] = Asian population, N 37, adjusted mean (% CV)
[7] = Caucasian population, N 12, adjusted mean (% CV)
[8] = Hematologic malignancies, N 17, adjusted mean (% CV)
[9] = Solid tumors, N 32, adjusted mean (% CV)
[10] = all cycles, N = 10, highest grade per subject
[11] = Study Day 1, 10 mg (~0.20 mg/kg)
[12] = Study Day 15, 10 mg (~0.20 mg/kg)
[13] = oral, 0.1 mg/kg, Study Day 15, 0.10 mg/kg
[14] = oral, 0.1 mg/kg, Study Day 1, 0.10 mg/kg
[15] = oral, 0.25 mg/kg, Study Day 1, 0.25 mg/kg
[16] = oral, 0.25 mg/kg, Study Day 15, 0.25 mg/kg
[17] = oral, 0.3 mg/kg, Study Day 15, 0.30 mg/kg
[18] = oral, 0.3 mg/kg, Study Day 1, 0.30 mg/kg
[19] = oral, 10 mg, Study Day 1, 10 mg (~0.20 mg/kg)
[20] = oral, 10 mg, Study Day 15, 10 mg (~0.20 mg/kg)
[21] = oral, Study Day 1, 10 mg (~0.20 mg/kg)

## Cc1ccc(F)c(NC(=O)Nc2ccc(-c3cccc4[nH]nc(N)c34)cc2)c1 [ABT-869, N-[4-(3-amino-1H-indazol-4-yl)phenyl]-N′-(2-fluoro-5-methylphenyl)urea]
[1]; 42 patients across studies
  time to maximum plasma concentration: approximately 3 h
[1]; [6]
  Dose Normalized AUC24: 0.264 (41%) μg · hr/mL/mg
  Dose Normalized Cmax: 0.018 (37%) μg/mL/mg
[1]; [7]
  Dose Normalized AUC24: 0.229 (34%) μg · hr/mL/mg
  Dose Normalized Cmax: 0.016 (27%) μg/mL/mg
[1]; [8]
  Dose Normalized AUC24: 0.230 (39%) μg · hr/mL/mg
  Dose Normalized Cmax: 0.018 (33%) μg/mL/mg
[1]; [9]
  Dose Normalized AUC24: 0.273 (40%) μg · hr/mL/mg
  Dose Normalized Cmax: 0.017 (39%) μg/mL/mg
[1]; 42 patients across studies, read-out: mean terminal elimination half-life
  half-life: 13.9 to 23.1 h
[1]; Asian population, N 37, adjusted mean (% CV), read-out: T1/2 (converted)
  half-life: 18.4 h
[1]; Caucasian population, N 12, adjusted mean (% CV), read-out: T1/2 (converted)
  half-life: 14.5 h
[1]; Hematologic malignancies, N 17, adjusted mean (% CV), read-out: T1/2 (converted)
  half-life: 15.7 h
[1]; Solid tumors, N 32, adjusted mean (% CV), read-out: T1/2 (converted)
  half-life: 18.4 h
[2]; NSCLC, CRC, neuroendocrine tumor, HCC, RCC soft tissue sarcoma and ovarian carcinoma
  change in tumor size: Reductions in tumor size observed
[2]; study M04-710
  NSCLC patients with partial remission / partial response: 2 (9%) patients (%)
  patients with SD for >1 year with no accumulation of toxicity: 4 patients
  patients with SD for ≧6 months: 6 (22%) patients (%)
  patients with stable disease (SD) for ≧3 months (4 treatment periods): 15 (56%) patients (%)
[3]; 20 mg/body cohort
  Dose limiting fatigue: 3 patients
[3]; all cycles, N = 10
  Alopecia, Overall: 2 (20.0) n (%)
  Anorexia, Overall: 2 (20.0) n (%)
  Asthenia, Overall: 3 (30.0) n (%)
  Constipation, Overall: 2 (20.0) n (%)
  Cough, Overall: 3 (30.0) n (%)
  Diarrhoea, Overall: 4 (40.0) n (%)
  Fatigue, Overall: 2 (20.0) n (%)
  Febrile Neutropenia, Overall: 3 (30.0) n (%)
  Haematuria, Overall: 2 (20.0) n (%)
  Hypocalcaemia, Overall: 2 (20.0) n (%)
  Hypokalaemia, Overall: 2 (20.0) n (%)
  Myalgia, Overall: 2 (20.0) n (%)
  Nausea, Overall: 2 (20.0) n (%)
  Palmar-plantar erythrodysaesthesia syndrome, Overall: 2 (20.0) n (%)
  Pyrexia, Overall: 3 (30.0) n (%)
[3]; [10]
  Alopecia, Grade 1: 0 n
  Alopecia, Grade 2: 2 n
  Alopecia, Grade 3/4: 0 n
  Anorexia, Grade 1: 2 n
  Anorexia, Grade 2: 0 n
  Anorexia, Grade 3/4: 0 n
  Asthenia, Grade 1: 1 n
  Asthenia, Grade 2: 0 n
  Asthenia, Grade 3/4: 2 n
  Constipation, Grade 1: 2 n
  Constipation, Grade 2: 0 n
  Constipation, Grade 3/4: 0 n
  Cough, Grade 1: 3 n
  Cough, Grade 2: 0 n
  Cough, Grade 3/4: 0 n
  Diarrhoea, Grade 1: 2 n
  Diarrhoea, Grade 2: 1 n
  Diarrhoea, Grade 3/4: 1 n
  Fatigue, Grade 1: 1 n
  Fatigue, Grade 2: 1 n
  Fatigue, Grade 3/4: 0 n
  Febrile Neutropenia, Grade 1: 0 n
  Febrile Neutropenia, Grade 2: 0 n
  Febrile Neutropenia, Grade 3/4: 3 n
  Haematuria, Grade 1: 1 n
  Haematuria, Grade 2: 1 n
  Haematuria, Grade 3/4: 0 n
  Hypocalcaemia, Grade 1: 2 n
  Hypocalcaemia, Grade 2: 0 n
  Hypocalcaemia, Grade 3/4: 0 n
  Hypokalaemia, Grade 1: 2 n
  Hypokalaemia, Grade 2: 0 n
  Hypokalaemia, Grade 3/4: 0 n
  Myalgia, Grade 1: 1 n
  Myalgia, Grade 2: 0 n
  Myalgia, Grade 3/4: 1 n
  Nausea, Grade 1: 2 n
  Nausea, Grade 2: 0 n
  Nausea, Grade 3/4: 0 n
  Palmar-plantar erythrodysaesthesia syndrome, Grade 1: 2 n
  Palmar-plantar erythrodysaesthesia syndrome, Grade 2: 0 n
  Palmar-plantar erythrodysaesthesia syndrome, Grade 3/4: 0 n
  Pyrexia, Grade 1: 1 n
  Pyrexia, Grade 2: 1 n
  Pyrexia, Grade 3/4: 1 n
[3]; study M05-756
  dose-limiting toxicities: fatigue is dose-limiting
  reversibility of toxicities: treatable, or reversible with ABT-869 interruption
[4]
  Klebsiella Bacteraemia, Grade 1: 0 n
  Klebsiella Bacteraemia, Grade 2: 0 n
  Klebsiella Bacteraemia, Grade 3/4: 2 n
  Klebsiella Bacteraemia, Overall: 2 (20.0) n (%)
[5]; 0.10 to 0.30 mg/kg QD, oral
  dose proportionality and time dependence of PK: dose-proportional and time-invariant; also recorded: approximately dose-proportional (0.10-0.30 mg/kg QD, oral) and time independent with minimal accumulation at day 15
[5]; 24 hour urine, N=4
  dose recovered in the urine as unchanged ABT-869: ~4%
[5]; Study Day 1, 0.10 mg/kg
  AUC∞/D: 0.51 ± 0.21 µg·h/mL/mg
  Cmax/D: 0.020 ± 0.007 µg/mL/mg
[5]; Study Day 1, 0.25 mg/kg
  AUC∞/D: 0.41 ± 0.19 µg·h/mL/mg
  Cmax/D: 0.019 ± 0.006 µg/mL/mg
[5]; Study Day 1, 0.30 mg/kg
  AUC∞/D: 0.47 ± 0.19 µg·h/mL/mg
  Cmax/D: 0.020 ± 0.008 µg/mL/mg
[5]; [11]
  AUC∞/D: 0.41 ± 0.22 µg·h/mL/mg
  Cmax/D: 0.021 ± 0.012 µg/mL/mg
[5]; Study Day 15, 0.10 mg/kg
  AUC0-24/D: 0.35 ± 0.15 µg·h/mL/mg
  Cmax/D: 0.024 ± 0.008 µg/mL/mg
[5]; Study Day 15, 0.25 mg/kg
  AUC0-24/D: 0.30 ± 0.08 µg·h/mL/mg
  Cmax/D: 0.022 ± 0.006 µg/mL/mg
[5]; Study Day 15, 0.30 mg/kg
  AUC0-24/D: 0.30 ± 0.07 µg·h/mL/mg
  Cmax/D: 0.022 ± 0.008 µg/mL/mg
[5]; [12]
  AUC0-24/D: 0.35 ± 0.20 µg·h/mL/mg
  Cmax/D: 0.026 ± 0.019 µg/mL/mg
[5]; [13]
  Cmax: 140 ± 50 ng/mL
  Tmax: 3.7 ± 1.5 h
  AUC(0-t): 2100 ± 900 ng·h/mL
[5]; [14]
  AUC(0-inf): 3100 ± 1400 ng·h/mL
  Cmax: 120 ± 50 ng/mL
  Tmax: 3.5 ± 1.5 h
  clearance: 38.3 mL/min
  half-life: 19 ± 5.6 h
[5]; [15]
  Cmax: 260 ± 90 ng/mL
  Tmax: 2.7 ± 0.8 h
[5]; [16]
  Cmax: 310 ± 120 ng/mL
  Tmax: 3.5 ± 1 h
[5]; [17]
  Cmax: 390 ± 170 ng/mL
  Tmax: 3.3 ± 0.6 h
  AUC(0-t): 5300 ± 1500 ng·h/mL
[5]; [18]
  AUC(0-inf): 7900 ± 2000 ng·h/mL
  Cmax: 340 ± 90 ng/mL
  Tmax: 2 h
  clearance: 40 mL/min
  half-life: 22 ± 2.4 h
[5]; [19]
  Cmax: 210 ± 120 ng/mL
  Tmax: 3.3 ± 1.5 h
[5]; [20]
  Cmax: 220 ± 170 ng/mL
  Tmax: 3 h
[5]; oral, Study Day 1, 0.25 mg/kg
  AUC(0-inf): 5800 ± 2900 ng·h/mL
  clearance: 50 mL/min
  half-life: 18.9 ± 6.2 h
[5]; [21]
  AUC(0-inf): 4100 ± 2200 ng·h/mL
  clearance: 50 mL/min
  half-life: 14.4 ± 4.6 h
[5]; oral, Study Day 15, 0.25 mg/kg
  AUC(0-t): 4300 ± 2100 ng·h/mL
[5]; oral, Study Day 15, 10 mg (~0.20 mg/kg)
  AUC(0-t): 3000 ± 1500 ng·h/mL

Reference: patent US20090203709A1, “Pharmaceutical Dosage Form For Oral Administration Of Tyrosine Kinase Inhibitor” (ABBOTT LABORATORIES, priority 2008, published 2009)
